Among the data in patent US20260131009A1, “BIFUNCTIONAL PI3K-ALPHA INHIBITORS AND USES THEREOF” (Relay Therapeutics, Inc., priority 2021, published 2026) are IC50 values, retold here.

pIC50: −log10 of the molar value.

One assay concerns the target PI3Kα (Homo sapiens, UniProt P42336, H1047R). In words: ADP-Glo IC50 assay. It counts as biochemical. The conditions noted are these: class symbols; key not given. In general terms: ADP-Glo first removes unused ATP, then detects ADP through luciferase.
The test system of a further assay is MCF10A. Description: MCF10A IC50 assay. In kind it is cell-based. Particulars: Homo sapiens, MCF-10A; class symbols; key not given. A digest of the protocol: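 MCF10A cells overexpressing hotspot PIK3CA mutations were seeded at 5,000 per well in supplemented DMEM/F12 and adhered overnight (37 °C, 5% CO₂). Compounds were added acoustically as 12-dose 1:3 series, in duplicate, for 2 hours. Cells were lysed 60 min, then incubated 4 hours at room temperature with CisBio phospho-AKT (Ser473) HTRF antibodies and read on an Envision 2105. IC₅₀ for AKT phosphorylation came from Genedata software and was reported as binned categories.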

PI3Kα, sequence (P42336 whole entry H1047R): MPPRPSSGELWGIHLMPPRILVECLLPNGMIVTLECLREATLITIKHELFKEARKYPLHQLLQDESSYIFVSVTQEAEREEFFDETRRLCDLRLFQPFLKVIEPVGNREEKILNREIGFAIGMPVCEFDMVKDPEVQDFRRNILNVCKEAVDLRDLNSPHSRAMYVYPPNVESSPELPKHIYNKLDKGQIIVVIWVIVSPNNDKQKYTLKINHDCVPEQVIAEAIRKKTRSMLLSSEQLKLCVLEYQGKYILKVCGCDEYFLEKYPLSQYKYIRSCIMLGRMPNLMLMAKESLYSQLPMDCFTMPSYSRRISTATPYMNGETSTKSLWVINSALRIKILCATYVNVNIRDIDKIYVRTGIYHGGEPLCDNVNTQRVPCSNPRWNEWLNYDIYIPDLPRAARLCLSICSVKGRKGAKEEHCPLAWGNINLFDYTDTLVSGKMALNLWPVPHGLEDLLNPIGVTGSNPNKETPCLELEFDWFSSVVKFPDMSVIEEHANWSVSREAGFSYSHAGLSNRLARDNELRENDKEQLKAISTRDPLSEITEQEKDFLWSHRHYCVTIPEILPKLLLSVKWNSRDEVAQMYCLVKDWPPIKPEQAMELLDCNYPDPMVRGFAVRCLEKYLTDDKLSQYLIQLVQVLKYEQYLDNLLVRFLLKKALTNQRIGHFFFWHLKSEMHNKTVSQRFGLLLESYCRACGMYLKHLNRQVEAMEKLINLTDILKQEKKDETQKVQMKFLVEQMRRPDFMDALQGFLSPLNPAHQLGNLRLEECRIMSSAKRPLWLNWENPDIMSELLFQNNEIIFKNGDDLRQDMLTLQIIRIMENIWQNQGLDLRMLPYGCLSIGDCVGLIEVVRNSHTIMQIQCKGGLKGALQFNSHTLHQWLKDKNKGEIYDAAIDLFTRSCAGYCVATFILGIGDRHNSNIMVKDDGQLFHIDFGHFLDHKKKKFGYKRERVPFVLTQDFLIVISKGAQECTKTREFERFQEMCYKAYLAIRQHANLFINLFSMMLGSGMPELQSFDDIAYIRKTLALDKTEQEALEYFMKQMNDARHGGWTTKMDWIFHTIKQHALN
PI3Kα, sequence (P27986 whole entry partner): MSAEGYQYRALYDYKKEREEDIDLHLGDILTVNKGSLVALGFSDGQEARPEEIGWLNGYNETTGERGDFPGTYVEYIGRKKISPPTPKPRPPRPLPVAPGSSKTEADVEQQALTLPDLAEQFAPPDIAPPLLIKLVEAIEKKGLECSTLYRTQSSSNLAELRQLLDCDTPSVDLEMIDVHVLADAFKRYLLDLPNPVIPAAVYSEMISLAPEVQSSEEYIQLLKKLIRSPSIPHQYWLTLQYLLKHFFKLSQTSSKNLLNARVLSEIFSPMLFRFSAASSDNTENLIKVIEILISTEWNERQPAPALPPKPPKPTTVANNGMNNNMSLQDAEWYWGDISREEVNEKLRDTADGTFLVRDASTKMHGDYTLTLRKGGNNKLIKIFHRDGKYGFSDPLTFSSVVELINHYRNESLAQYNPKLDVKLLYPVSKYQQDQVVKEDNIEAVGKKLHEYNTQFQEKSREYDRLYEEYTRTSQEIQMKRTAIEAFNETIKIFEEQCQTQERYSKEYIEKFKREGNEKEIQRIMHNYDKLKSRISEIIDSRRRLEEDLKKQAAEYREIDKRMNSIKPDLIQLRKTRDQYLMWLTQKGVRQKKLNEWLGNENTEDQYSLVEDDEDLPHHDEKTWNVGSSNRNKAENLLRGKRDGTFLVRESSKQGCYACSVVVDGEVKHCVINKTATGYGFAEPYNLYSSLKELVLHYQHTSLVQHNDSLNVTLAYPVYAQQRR

One may read the pIC50 as −log10 of the IC50, conventionally taken in molar units. As to `Cc1ccccc1Nc1ncc(C(=O)NCC#Cc2ccc3c(c2)CN(C2CCC(=O)NC2=O)C3=O)cc1NC(=O)c1csc2ccccc12` (centres unmarked) [Example I-53], the figures for the negative-log IC50 (pIC50) against PI3Kα and in the assay with MCF10A were > 7.00 and > 6.00, respectively.
Taken in the same sequence, the figures for `Cc1ccccc1Nc1ncc(C(=O)NCCCCCNC(=O)c2ccc3c(c2)CN(C2CCC(=O)NC2=O)C3=O)cc1NC(=O)c1csc2ccccc12` (centres unmarked) [Example I-1] were 6.30 to 7.00 and 4.44 to 5.00.
Taken in the same sequence, the figures for `Cc1ccccc1Nc1ncc(C(=O)NCCCCCCCNC(=O)c2ccc3c(c2)CN(C2CCC(=O)NC2=O)C3=O)cc1NC(=O)c1csc2ccccc12` (centres unmarked) [Example I-5] were 6.30 to 7.00 and 4.44 to 5.00.
Taken in the same sequence, the figures for `Cc1ccccc1Nc1ncc(C(=O)NCCOCCOCCOCCOCCC(=O)N[C@H](C(=O)N2C[C@H](O)C[C@H]2C(=O)N[C@@H](C)c2ccc(-c3scnc3C)cc2)C(C)(C)C)cc1NC(=O)c1csc2ccccc12` [Example I-13] were 5.00 to 6.00 and 4.44 to 5.00.
As for `O=C1CCC(N2Cc3cc(C(=O)NCCCCCCCCCNC(=O)c4cc(NC(=O)c5cc(F)cc(C(F)(F)F)c5)c5c(c4)C(=O)N[C@H]5c4cc(F)ccc4Cl)ccc3C2=O)C(=O)N1` (some centres unmarked) [Example I-67], the pIC50 is > 7.00 at PI3Kα and 4.44 to 5.00 in the assay on MCF10A.
For the molecule `Cc1ccccc1Nc1ncc(C(=O)NCCCCCCCC(=O)N[C@H](C(=O)N2C[C@H](O)C[C@H]2C(=O)N[C@@H](C)c2ccc(-c3scnc3C)cc2)C(C)(C)C)cc1NC(=O)c1csc2ccccc12` [Example I-8], the negative logarithm of the IC50 (pIC50) against PI3Kα was 6.30 to 7.00; with MCF10A, 4.44 to 5.00.
Molecule `Cc1ccccc1Nc1ncc(C(=O)NCCCCCC(=O)N[C@H](C(=O)N2C[C@H](O)C[C@H]2C(=O)NCc2ccc(-c3scnc3C)cc2)C(C)(C)C)cc1NC(=O)c1csc2ccccc12` [Example I-38] gave a negative logarithm of the IC50 (pIC50) against PI3Kα of 6.30 to 7.00.
The same measure, in the same setting: for `Cc1cc([C@H](C)Nc2ccccc2C(=O)O)c2oc(N3CCN(C(=O)CCNc4cccc5c4C(=O)N(C4CCC(=O)NC4=O)C5=O)CC3)cc(=O)c2c1` (some centres unmarked) [Example I-134] the value was 5.00 to 6.00.
On the same count and under the same terms, to `O=C1CCC(N2Cc3cc(C(=O)NCCCCCCCCCNC(=O)c4cc(NC(=O)c5cc(F)cc(C(F)(F)F)c5)c5c(c4)C(=O)N[C@@H]5c4cc(F)ccc4Cl)ccc3C2=O)C(=O)N1` (some centres unmarked) [Example I-70] belongs 5.00 to 6.00.
Take `Cc1ccccc1Nc1ncc(C(=O)NCCOCCOCCOCCC(=O)NCc2ccc3c(c2)CN(C2CCC(=O)NC2=O)C3=O)cc1NC(=O)c1csc2ccccc12` (centres unmarked) [Example I-26]: the negative-log IC50 (pIC50) against PI3Kα is 5.00 to 6.00.
Molecule `O=C1CCC(N2C(=O)c3ccc(NCCCNC(=O)c4cnc(Nc5cc(F)ccc5Cl)c(NC(=O)c5csc6ccccc56)c4)cc3C2=O)C(=O)N1` (centres unmarked) [Example I-99] had a pIC50 against PI3Kα of 6.30 to 7.00.
At PI3Kα, `Cc1ccccc1Nc1ncc(C(=O)NCCCC(=O)N[C@H](C(=O)N2C[C@H](O)C[C@H]2C(=O)NCc2ccc(-c3scnc3C)cc2)C(C)(C)C)cc1NC(=O)c1csc2ccccc12` [Example I-48] had a pIC50 of 6.00 to 6.30.
Still for that read-out and setting: to `Cc1ccccc1Nc1ncc(C(=O)NCCOCCOCCOCCOCCOCCOCCC(=O)N[C@H](C(=O)N2C[C@H](O)C[C@H]2C(=O)NCc2ccc(-c3scnc3C)cc2)C(C)(C)C)cc1NC(=O)c1csc2ccccc12` [Example I-32] belongs 5.00 to 6.00; to `Cc1ccccc1Nc1ncc(C(=O)NCCOCCOCCC(=O)NCc2ccc3c(c2)CN(C2CCC(=O)NC2=O)C3=O)cc1NC(=O)c1csc2ccccc12` (centres unmarked) [Example I-30], 5.00 to 6.00.
Still for that read-out and setting: for `NC(=O)CCCCCCCCCNC(=O)c1cnc(Nc2cc(F)ccc2Cl)c(NC(=O)c2csc3ccccc23)c1` [Example I-68] the value was 6.30 to 7.00; for `Cc1cc([C@H](C)Nc2ccccc2C(=O)O)c2oc(N3CCN(C(=O)CCCNc4ccc5c(c4)C(=O)N(C4CCC(=O)NC4=O)C5=O)CC3)cc(=O)c2c1` (some centres unmarked) [Example I-147], 5.00 to 6.00.
On the same count and under the same terms, to `O=C(CCCCCCCNC(=O)c1cc(NC(=O)c2cc(F)cc(C(F)(F)F)c2)c2c(c1)C(=O)N[C@@H]2c1cc(F)ccc1Cl)NCc1ccc2c(c1)CN(C1CCC(=O)NC1=O)C2=O` (some centres unmarked) [Example I-92] belongs 6.00 to 6.30; to `NC(=O)CCCCCCCCCNC(=O)c1cc(NC(=O)c2nsc3ccccc23)c2n1CC(=O)N[C@@H]2c1cc(F)ccc1Cl` [Example I-103], > 7.00; to `O=C1CCC(N2C(=O)c3ccc(NCCCCCNC(=O)c4cnc(Nc5cc(F)ccc5Cl)c(NC(=O)c5csc6ccccc56)c4)cc3C2=O)C(=O)N1` (centres unmarked) [Example I-63], 6.30 to 7.00.
`O=C1CCC(N2C(=O)c3ccc(NCCOCCOCCOCCOCCOCCOCCOCCOCCOCCOCCOCCOCCNC(=O)c4cc(NC(=O)c5cc(F)cc(C(F)(F)F)c5)c5c(c4)C(=O)N[C@@H]5c4cc(F)ccc4Cl)cc3C2=O)C(=O)N1` (some centres unmarked) [Example I-151] showed a pIC50 at PI3Kα of 5.00 to 6.00.
The same measure, in the same setting: for `Cc1ccccc1Nc1ncc(C(=O)NCCCNc2ccc3c(c2)C(=O)N(C2CCC(=O)NC2=O)C3=O)cc1NC(=O)c1csc2ccccc12` (centres unmarked) [Example I-56] the value was > 7.00.
In the case of `Cc1ccccc1Nc1ncc(C(=O)NCCCCCCCNc2cccc3c2C(=O)N(C2CCC(=O)NC2=O)C3=O)cc1NC(=O)c1csc2ccccc12` (centres unmarked) [Example I-42], the pIC50 on PI3Kα is 6.30 to 7.00.
Same read-out and setting: to `Cc1ccccc1Nc1ncc(C(=O)NCCCCCCCCNc2ccc3c(c2)C(=O)N(C2CCC(=O)NC2=O)C3=O)cc1NC(=O)c1csc2ccccc12` (centres unmarked) [Example I-16] belongs 6.30 to 7.00; to `Cc1ncsc1-c1ccc(CNC(=O)[C@@H]2C[C@@H](O)CN2C(=O)[C@@H](NC(=O)CCCCCCCCCNC(=O)c2cc(NC(=O)c3nsc4ccccc34)c3n2CC(=O)N[C@H]3c2cc(F)ccc2Cl)C(C)(C)C)cc1` [Example I-105], 6.00 to 6.30; to `O=C1CCC(N2Cc3cc(C(=O)NCCCCCCCCCNC(=O)c4cc(NC(=O)c5cccc(F)c5)c5c(c4)C(=O)N[C@@H]5c4cc(F)ccc4Cl)ccc3C2=O)C(=O)N1` (some centres unmarked) [Example I-161], 5.00 to 6.00.
Consider `Cc1ccccc1Nc1ncc(C(=O)NCCCCCC(=O)NCc2ccc3c(c2)C(=O)N(C2CCC(=O)NC2=O)C3)cc1NC(=O)c1csc2ccccc12` (centres unmarked) [Example I-58], for which the pIC50 against PI3Kα is 6.30 to 7.00.
`Cc1cc([C@@H](C)Nc2ccccc2C(=O)O)c2oc(N3CCN(C(=O)CCCNc4cccc5c4C(=O)N(C4CCC(=O)NC4=O)C5=O)CC3)cc(=O)c2c1` (some centres unmarked) [Example I-141] had a negative-log IC50 (pIC50) against PI3Kα of 6.00 to 6.30.
Still for that read-out and setting: for `O=C1CCC(N2Cc3cc(C(=O)NCCCCCCCCCNC(=O)c4cc(NC(=O)c5cccc(C(F)(F)F)c5)c5c(c4)C(=O)N[C@H]5c4cc(F)ccc4Cl)ccc3C2=O)C(=O)N1` (some centres unmarked) [Example I-162] the value was 6.00 to 6.30; for `Cc1ccccc1Nc1ncc(C(=O)NCCCNC(=O)c2ccc3c(c2)CN(C2CCC(=O)NC2=O)C3=O)cc1NC(=O)c1csc2ccccc12` (centres unmarked) [Example I-61], 6.30 to 7.00; for `O=C1CCC(N2Cc3cc(C(=O)NCCOCCOCCOCCOCCOCCOCCOCCOCCOCCOCCOCCOCCNC(=O)c4cc(NC(=O)c5cc(F)cc(C(F)(F)F)c5)c5c(c4)C(=O)N[C@H]5c4cc(F)ccc4Cl)ccc3C2=O)C(=O)N1` (some centres unmarked) [Example I-157], 6.00 to 6.30.
The molecule `Cc1cc([C@@H](C)Nc2ccccc2C(=O)O)c2oc(N3CCN(C(=O)CCOCCNc4ccc5c(c4)C(=O)N(C4CCC(=O)NC4=O)C5=O)CC3)cc(=O)c2c1` (some centres unmarked) [Example I-144] gave a pIC50 on PI3Kα of 5.00 to 6.00.
For the molecule `Cc1cc([C@H](C)Nc2ccccc2)c2oc(N3CCN(C(=O)CCOCCOCCNC(=O)c4cnc(Nc5ccccc5C)c(NC(=O)c5csc6ccccc56)c4)CC3)cc(=O)c2c1` [Example I-112], at PI3Kα, the pIC50 is 5.00 to 6.00.
